From US20210070748A1, “INHIBITORS OF BRUTONS TYROSINE KINASE” (Pharmacyclics LLC, priority 2015, published 2021)

What was measured:
Type in all cases: biochemical
TEC = target: T1, TEC (Homo sapiens, UniProt P42680); experiment: Inhibition of a panel of kinases, in vitro HotSpot kinase assay: TEC; conditions: D-compounds panel data; 1 μM ATP
T1 sequence (P42680 1-631): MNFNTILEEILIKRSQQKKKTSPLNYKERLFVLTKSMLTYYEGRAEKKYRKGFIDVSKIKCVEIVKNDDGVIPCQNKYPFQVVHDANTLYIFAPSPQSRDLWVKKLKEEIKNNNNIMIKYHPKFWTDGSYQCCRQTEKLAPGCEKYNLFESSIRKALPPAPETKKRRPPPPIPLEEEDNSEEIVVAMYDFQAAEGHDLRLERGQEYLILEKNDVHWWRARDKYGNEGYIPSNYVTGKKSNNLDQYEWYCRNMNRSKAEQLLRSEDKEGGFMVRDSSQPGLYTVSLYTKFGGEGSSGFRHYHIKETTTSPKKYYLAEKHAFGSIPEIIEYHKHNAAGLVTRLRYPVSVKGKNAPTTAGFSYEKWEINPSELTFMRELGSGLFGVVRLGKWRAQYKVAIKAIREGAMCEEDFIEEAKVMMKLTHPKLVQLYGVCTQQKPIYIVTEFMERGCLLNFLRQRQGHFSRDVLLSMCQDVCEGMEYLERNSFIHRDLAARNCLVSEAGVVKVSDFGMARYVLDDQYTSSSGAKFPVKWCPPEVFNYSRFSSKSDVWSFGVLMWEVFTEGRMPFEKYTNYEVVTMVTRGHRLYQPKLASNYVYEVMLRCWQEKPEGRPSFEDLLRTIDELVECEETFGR
Protocol: (§1) The degree of inhibition of a panel of kinases is determined using the in vitro HotSpot kinase assay (purified enzymes, ^33P-ATP, an appropriate substrate and 1 μM ATP).

SRC = SRC (Homo sapiens, UniProt P12931); experiment: Inhibition of a panel of kinases, in vitro HotSpot kinase assay: SRC; conditions: D-compounds panel data; 1 μM ATP
Chain of SRC (P12931 whole entry): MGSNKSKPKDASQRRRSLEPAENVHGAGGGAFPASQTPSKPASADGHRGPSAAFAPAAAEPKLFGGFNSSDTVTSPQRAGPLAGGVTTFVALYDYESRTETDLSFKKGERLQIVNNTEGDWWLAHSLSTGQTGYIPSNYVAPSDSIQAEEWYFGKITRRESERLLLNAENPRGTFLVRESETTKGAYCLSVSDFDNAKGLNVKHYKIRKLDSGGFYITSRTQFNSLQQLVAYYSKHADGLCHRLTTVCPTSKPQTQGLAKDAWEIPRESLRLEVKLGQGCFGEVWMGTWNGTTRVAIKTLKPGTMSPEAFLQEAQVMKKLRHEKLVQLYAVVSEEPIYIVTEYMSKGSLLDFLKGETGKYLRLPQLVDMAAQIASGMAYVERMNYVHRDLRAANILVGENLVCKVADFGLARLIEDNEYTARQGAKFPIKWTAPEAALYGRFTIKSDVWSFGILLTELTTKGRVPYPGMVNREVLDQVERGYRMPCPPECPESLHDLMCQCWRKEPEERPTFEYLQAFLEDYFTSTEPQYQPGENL
Protocol: as §1

BTK-WT = target: T2, BTK-WT (Homo sapiens, UniProt Q06187); experiment: Btk in vitro inhibitory activity (one of Method A TR-FRET, Method B electrophoretic mobility shift, Method C radiometric filter binding); conditions: D-compounds panel data; read-out: IC50 BTK-WT
T2 construct: purified from insect cells as a full-length construct containing an N-terminal 6X-His tag; His6 (N); made in house; host or cells: insect cells (baculovirus Sf21 in Method B)
T2 sequence (Q06187 whole entry): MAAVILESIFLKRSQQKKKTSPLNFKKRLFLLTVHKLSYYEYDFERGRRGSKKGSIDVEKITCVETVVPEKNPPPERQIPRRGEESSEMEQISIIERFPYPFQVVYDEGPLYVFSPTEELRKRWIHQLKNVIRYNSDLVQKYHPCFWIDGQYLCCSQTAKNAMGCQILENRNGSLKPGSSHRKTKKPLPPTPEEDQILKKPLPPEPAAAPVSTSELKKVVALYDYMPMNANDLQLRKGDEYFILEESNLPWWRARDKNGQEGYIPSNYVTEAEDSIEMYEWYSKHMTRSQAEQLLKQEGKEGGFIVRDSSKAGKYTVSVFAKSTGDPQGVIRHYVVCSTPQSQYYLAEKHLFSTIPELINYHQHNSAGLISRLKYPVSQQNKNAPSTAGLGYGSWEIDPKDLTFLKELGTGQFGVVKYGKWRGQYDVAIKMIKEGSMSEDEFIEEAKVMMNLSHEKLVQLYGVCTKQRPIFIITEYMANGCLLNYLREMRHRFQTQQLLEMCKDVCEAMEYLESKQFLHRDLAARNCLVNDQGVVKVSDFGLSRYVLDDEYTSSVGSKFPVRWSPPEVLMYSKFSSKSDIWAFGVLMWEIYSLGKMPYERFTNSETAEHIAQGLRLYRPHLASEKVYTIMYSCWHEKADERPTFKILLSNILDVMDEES

LCK = LCK (Homo sapiens, UniProt P06239); experiment: Inhibition of a panel of kinases, in vitro HotSpot kinase assay: LCK; conditions: D-compounds panel data; 1 μM ATP; read-out: IC50 LCK
Chain of LCK (P06239 whole entry): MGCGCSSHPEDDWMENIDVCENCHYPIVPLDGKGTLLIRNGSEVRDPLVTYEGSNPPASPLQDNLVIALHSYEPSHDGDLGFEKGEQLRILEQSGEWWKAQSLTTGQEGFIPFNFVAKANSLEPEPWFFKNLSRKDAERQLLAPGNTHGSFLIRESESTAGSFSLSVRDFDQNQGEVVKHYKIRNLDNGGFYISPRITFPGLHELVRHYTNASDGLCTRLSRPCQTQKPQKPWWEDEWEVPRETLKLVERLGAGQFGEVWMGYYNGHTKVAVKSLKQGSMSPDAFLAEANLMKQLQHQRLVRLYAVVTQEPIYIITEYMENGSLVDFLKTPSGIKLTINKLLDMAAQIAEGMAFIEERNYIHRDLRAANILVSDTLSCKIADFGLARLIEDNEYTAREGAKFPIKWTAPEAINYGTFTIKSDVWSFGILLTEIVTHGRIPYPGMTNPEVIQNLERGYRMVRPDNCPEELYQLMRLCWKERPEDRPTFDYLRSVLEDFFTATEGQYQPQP

ITK = target: T3, ITK (Homo sapiens, UniProt Q08881); experiment: Inhibition of a panel of kinases, in vitro HotSpot kinase assay: ITK; conditions: D-compounds panel data; 1 μM ATP
T3 sequence (Q08881 1-620): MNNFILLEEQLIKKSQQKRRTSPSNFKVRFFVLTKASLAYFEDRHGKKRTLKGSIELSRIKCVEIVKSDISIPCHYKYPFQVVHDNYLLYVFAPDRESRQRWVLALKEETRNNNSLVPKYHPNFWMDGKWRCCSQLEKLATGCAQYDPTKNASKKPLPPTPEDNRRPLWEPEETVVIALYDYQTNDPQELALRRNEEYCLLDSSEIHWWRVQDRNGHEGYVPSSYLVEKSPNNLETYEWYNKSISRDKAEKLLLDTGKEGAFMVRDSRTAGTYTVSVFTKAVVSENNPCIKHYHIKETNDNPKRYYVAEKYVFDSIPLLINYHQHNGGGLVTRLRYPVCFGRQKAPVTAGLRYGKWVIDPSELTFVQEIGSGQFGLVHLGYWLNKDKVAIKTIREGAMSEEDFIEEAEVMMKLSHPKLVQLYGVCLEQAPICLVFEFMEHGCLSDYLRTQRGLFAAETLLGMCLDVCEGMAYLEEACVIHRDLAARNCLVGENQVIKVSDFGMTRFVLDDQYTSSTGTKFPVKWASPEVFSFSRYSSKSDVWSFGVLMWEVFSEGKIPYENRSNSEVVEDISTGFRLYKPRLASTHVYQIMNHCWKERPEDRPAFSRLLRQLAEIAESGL
Protocol: as §1

SMILES	IC50 (TEC) [µM]	IC50 (SRC) [µM]	IC50 (BTK-WT) [µM]	IC50 (LCK) [µM]	IC50 (ITK) [µM]
C[C@@H]1[C@H](NC(=O)N(C)C)CCCN1c1cnc(C(N)=O)c(Nc2ccc(OC3CCN(C)CC3)cc2)n1 [Example D-33, 5-[(2R,3R)-3-[(dimethylcarbamoyl)amino]-2-methylpiperidin-1-yl]-3-({4-[(1-methylpiperidin-4-yl)oxy]phenyl}amino)pyrazine-2-carboxamide]	0.01 to 0.1	0.01 to 0.1	≤ 0.01	0.01 to 0.1	0.01 to 0.1
C[C@H]1C[C@H](NC(=O)c2ccc(C3CC3)cc2)CN(c2cnc(C(N)=O)c(Nc3cnn(C)c3)n2)C1 [Example D-34, 5-[(3S,5S)-3-(4-cyclopropylbenzamido)-5-methylpiperidin-1-yl]-3-[(1-methyl-1H-pyrazol-4-yl)amino]pyrazine-2-carboxamide]	1 to 10	> 10	1 to 10	> 10	> 10
CC(C)n1ccc(C(=O)N[C@@H]2CCCN(c3cnc(C(N)=O)c(Nc4cnn(C)c4)n3)[C@@H]2C)cc1=O [Example D-35, 3-[(1-methyl-1H-pyrazol-4-yl)amino]-5-[(2R,3R)-2-methyl-3-[2-oxo-1-(propan-2-yl)-1,2-dihydropyridine-4-amido]piperidin-1-yl]pyrazine-2-carboxamide]	0.01 to 0.1	0.01 to 0.1	≤ 0.01	0.1 to 1	1 to 10
C[C@@H]1[C@H](N2Cc3cc(C4CC4)ccc3C2=O)CCCN1c1cnc(C(N)=O)c(Nc2cnn(C)c2)n1 [Example D-36, 5-[(2R,3R)-3-(5-cyclopropyl-1-oxo-2,3-dihydro-1H-isoindol-2-yl)-2-methylpiperidin-1-yl]-3-[(1-methyl-1H-pyrazol-4-yl)amino]pyrazine-2-carboxamide]	≤ 0.01	0.1 to 1	≤ 0.01	0.1 to 1	0.1 to 1
C[C@@H]1[C@H](N2CCN(C)C2=O)CCCN1c1cnc(C(N)=O)c(Nc2ccc(C3(C)CCN(C4CC4)CC3)cc2)n1 [Example D-38, 3-{[4-(1-cyclopropyl-4-methylpiperidin-4-yl)phenyl]amino}-5-[(2R,3R)-2-methyl-3-(3-methyl-2-oxoimidazolidin-1-yl)piperidin-1-yl]pyrazine-2-carboxamide]	0.01 to 0.1	0.01 to 0.1	≤ 0.01	0.01 to 0.1	0.01 to 0.1
Cn1cc(Nc2nc(N3CCC[C@@H](NC(=O)c4ccc(C(C)(C)O)cc4)C3)nnc2C(N)=O)cn1 [Example D-39, 3-[(3R)-3-[4-(2-hydroxypropan-2-yl)benzamido]piperidin-1-yl]-5-[(1-methyl-1H-pyrazol-4-yl)amino]-1,2,4-triazine-6-carboxamide]	0.01 to 0.1	0.1 to 1	≤ 0.01	0.1 to 1	0.1 to 1
C[C@@H]1[C@H](NC(=O)c2ccc(C(C)(C)O)nc2)CCCN1c1cnc(C(N)=O)c(Nc2cnn(C)c2)n1 [Example D-40, 5-[(2R,3R)-3-[6-(2-hydroxypropan-2-yl)pyridine-3-amido]-2-methylpiperidin-1-yl]-3-[(1-methyl-1H-pyrazol-4-yl)amino]pyrazine-2-carboxamide]	≤ 0.01	0.01 to 0.1	≤ 0.01	0.01 to 0.1	0.1 to 1
C[C@@H]1[C@H](NC(=O)c2ccc(C(C)(C)O)nc2)CCCN1c1nnc(C(N)=O)c(Nc2cnn(C)c2)n1 [Example D-41, 3-[(2R,3R)-3-[6-(2-hydroxypropan-2-yl)pyridine-3-amido]-2-methylpiperidin-1-yl]-5-[(1-methyl-1H-pyrazol-4-yl)amino]-1,2,4-triazine-6-carboxamide]	0.01 to 0.1	0.01 to 0.1	≤ 0.01	0.01 to 0.1	0.1 to 1
C[C@@H]1[C@H](NC(=O)c2ccc(C3CC3)cc2)CCCN1c1cnc(C(N)=O)c(Nc2ccc(OC(F)(F)F)cc2)n1 [Example D-42, 5-[(2R,3R)-3-(4-cyclopropylbenzamido)-2-methylpiperidin-1-yl]-3-{[4-(trifluoromethoxy)phenyl]amino}pyrazine-2-carboxamide]	0.1 to 1	> 10	0.1 to 1	> 10	> 10
Cn1cc(Nc2nc(N3CCC[C@@H]4[C@H]3CCN4C(=O)c3ccc(C4CC4)cc3)cnc2C(N)=O)cn1 [Example D-44, 5-[(3aR,7aR)-1-(4-cyclopropylbenzoyl)-octahydro-1H-pyrrolo[3,2-b]pyridin-4-yl]-3-[(1-methyl-1H-pyrazol-4-yl)amino]pyrazine-2-carboxamide]	0.1 to 1	1 to 10	0.01 to 0.1	0.1 to 1	> 10
Cn1cc(Nc2nc(N3CCC[C@H]4[C@@H]3CCN4C(=O)c3ccc(C4CC4)cc3)cnc2C(N)=O)cn1 [Example D-45, 5-[(3aS,7aS)-1-(4-cyclopropylbenzoyl)-octahydro-1H-pyrrolo[3,2-b]pyridin-4-yl]-3-[(1-methyl-1H-pyrazol-4-yl)amino]pyrazine-2-carboxamide]	0.1 to 1	1 to 10	0.01 to 0.1	0.1 to 1	1 to 10
Cn1cc(Nc2nc(N3CCC[C@@H]4[C@H]3CCCN4C(=O)c3ccc(C4CC4)cc3)cnc2C(N)=O)cn1 [Example D-46, 5-I[(4aR,8aR)-5-(4-cyclopropylbenzoyl)-decahydro-1,5-naphthyridin-1-yl]-3-[(1-methyl-1H-pyrazol-4-yl)amino]pyrazine-2-carboxamide]	0.01 to 0.1	0.1 to 1	0.01 to 0.1	0.1 to 1	1 to 10
Cn1cc(Nc2nc(N3CCC[C@H]4[C@@H]3CCCN4C(=O)c3ccc(C4CC4)cc3)cnc2C(N)=O)cn1 [Example D-47, 5-[(4aS,8aS)-5-(4-cyclopropylbenzoyl)-decahydro-1,5-naphthyridin-1-yl]-3-[(1-methyl-1H-pyrazol-4-yl)amino]pyrazine-2-carboxamide]	1 to 10	1 to 10	1 to 10	> 10	> 10
C[C@@H]1[C@H](NC(=O)c2ccc(C3CC3)nc2)CCCN1c1cnc(C(N)=O)c(Nc2ccc(OC3CCC(F)(F)CC3)cc2)n1 [Example D-48, 5-[(2R,3R)-3-(6-cyclopropylpyridine-3-amido)-2-methylpiperidin-1-yl]-3-({4-[(4,4-difluorocyclohexyl)oxy]phenyl}amino)pyrazine-2-carboxamide]	0.01 to 0.1	0.1 to 1	0.01 to 0.1	> 10	> 10
C[C@@H]1[C@H](NC(=O)c2ccc(C(C)(C)N)cc2)CCCN1c1cnc(C(N)=O)c(Nc2cnn(C)c2)n1 [Example D-51, 5-[(2R,3R)-3-[4-(2-aminopropan-2-yl)benzamido]-2-methylpiperidin-1-yl]-3-[(1-methyl-1H-pyrazol-4-yl)amino]pyrazine-2-carboxamide]	≤ 0.01	≤ 0.01	≤ 0.01	0.01 to 0.1	0.01 to 0.1
C[C@@H]1[C@H](NC(=O)N(C)C)CCCN1c1cnc(C(N)=O)c(Nc2ccc(N3CCN(C)CC3)cc2F)n1 [Example D-52, 5-[(2R,3R)-3-[(dimethylcarbamoyl)amino]-2-methylpiperidin-1-yl]-3-{[2-fluoro-4-(4-methylpiperazin-1-yl)phenyl]amino}pyrazine-2-carboxamide]	0.1 to 1	0.1 to 1	0.01 to 0.1	1 to 10	0.1 to 1
